Assay results from patent US8551984B2, “Aminopyrimidines as SYK inhibitors” (Merck Sharp & Dohme Corp., priority 2009, dated 2013).
pIC50: −log10 of the molar value.

Biological target: rhSYK (Homo sapiens, UniProt P43405)
Experiment: not given
Settings: read-out: rhSYK Activity; Table 117

| pIC50 | Structure (SMILES) |
| --- | --- |
| > 7.00 | Cc1cc(Nc2nccc(C(F)(F)F)n2)cc(-c2cnc(C(C)(O)c3ccc(C(N)=O)cc3)s2)c1 (single isomer, unassigned) [Example 117-21] |

Same assay, conditions: read-out: rhSYK Activity; Table 119; two symbols in a cell = one per listed form

| Structure (SMILES) | pIC50 |
| --- | --- |
| Cc1cc(Nc2nccc(C(F)(F)F)n2)cc(-c2cnc(C3(O)CCC(C(N)=O)C3)s2)c1 (single isomer, unassigned) [Example 119-4] | > 7.00 |
| Cc1cc(Nc2nccc(C(F)(F)F)n2)cc(-c2cnc(C3(O)CCC(C(N)=O)C(C)C3)s2)c1 (single isomer, unassigned) [Example 119-112] | > 7.00 |

Other lines, results leading:

| pIC50 | Structure (SMILES) |
| --- | --- |
| > 7.00 | Cc1cc(Nc2nccc(C(F)(F)F)n2)cc(-c2cnc(C3(O)CCC(C(N)=O)C3)s2)c1 (single isomer, unassigned) [Example 119-1] |
| > 7.00 | Cc1cc(Nc2nccc(C(F)(F)F)n2)cc(-c2cnc(C3(O)CCC(C(N)=O)C3)s2)c1 (single isomer, unassigned) [Example 119-3] |
| > 7.00 | Cc1cc(Nc2nccc(C)n2)cc(-c2cnc(C3(O)CCC(C(N)=O)C(C)C3)s2)c1 (single isomer, unassigned) [Example 119-6] |

Same assay, conditions: read-out: rhSYK Activity; class symbol; where two forms are listed, one symbol per form

| Structure (SMILES) | pIC50 |
| --- | --- |
| Cc1cc(Nc2nccc(C(F)(F)F)n2)cc(-c2cnc(C(C)(O)c3cccc(C(=O)O)c3)s2)c1 (single isomer, unassigned) [Example 4A-54] | > 7.00 |
| Cc1cc(Nc2nccc(C(F)(F)F)n2)cc(-c2cnc(C(C)(O)c3cccc(C(=O)O)c3)s2)c1 (single isomer, unassigned) [Example 4A-55] | > 7.00 |
| Cc1cc(Nc2nccc(C(F)(F)F)n2)cc(-c2cnc(C(C)(O)c3ccc(CC(=O)O)cc3)s2)c1 (single isomer, unassigned) [Example 4A-60] | > 7.00 |
| COc1cc(C(C)(O)c2ncc(-c3cc(C)cc(Nc4nccc(C(F)(F)F)n4)c3)s2)ccc1C(=O)O (single isomer, unassigned) [Example 4A-66] | > 7.00 |
| Cc1cc(Nc2nccc(C(F)(F)F)n2)cc(-c2cnc(C(C)(O)c3ccc(Br)nc3)s2)c1 (single isomer, unassigned) [Example 4A-68] | > 7.00 |
| Cc1cc(Nc2nccc(C(F)(F)F)n2)cc(-c2cnc(C(C)(O)c3ccc(Br)nc3)s2)c1 (single isomer, unassigned) [Example 4A-69] | > 7.00 |
| Cc1cc(Nc2nccc(C(F)(F)F)n2)cc(-c2cnc(C(O)(CO)C(F)(F)F)s2)c1 (single isomer, unassigned) [Example 6-8] | > 7.00 |
| Cc1cc(Nc2nccc(C(F)(F)F)n2)cc(-c2cnc(C(O)(CO)C(F)(F)F)s2)c1 (single isomer, unassigned) [Example 6-9] | > 7.00 |
| O=C(c1ccccc1)N1CCC(O)(c2ncc(-c3cccc(Nc4nccc(C(F)(F)F)n4)c3)s2)CC1 [4D-6] | > 7.00 |

Results, then the compound that gave them:

| pIC50 | Structure (SMILES) |
| --- | --- |
| > 7.00 | Cc1cc(Nc2nccc(C(F)(F)F)n2)cc(-c2cnc(C(C)(O)c3ccc(CC(=O)O)cc3)s2)c1 (single isomer, unassigned) [Example 4A-59] |
| > 7.00 | COc1cc(C(C)(O)c2ncc(-c3cc(C)cc(Nc4nccc(C(F)(F)F)n4)c3)s2)ccc1C(=O)O (single isomer, unassigned) [Example 4A-65] |

Same assay, conditions: read-out: rhSYK activity; class symbol given

| pIC50 | Structure (SMILES) |
| --- | --- |
| > 7.00 | Cc1cc(Nc2nccc(C(F)(F)F)n2)cc(-c2cnc(C3(O)CCC(C(=O)O)CC3)s2)c1 (single isomer, unassigned) [33(1), trans-4-hydroxy-4-[5-(3-methyl-5-{[4-(trifluoromethyl)pyrimidin-2-yl]amino}phenyl)-1,3-thiazol-2-yl]cyclohexanecarboxylic acid] |
| > 7.00 | Cc1cc(Nc2nccc(C(F)(F)F)n2)cc(-c2cnc(C3(O)CCC(C(=O)O)CC3)s2)c1 (single isomer, unassigned) [33(2), cis-4-hydroxy-4-[5-(3-methyl-5-{[4-(trifluoromethyl)pyrimidin-2-yl]amino}phenyl)-1,3-thiazol-2-yl]cyclohexanecarboxylic acid] |
| > 7.00 | Cc1cc(Nc2nccc(C(F)(F)F)n2)cc(-c2cnc(C3(O)CCC(O)CC3)s2)c1 (stereo not drawn) [8(2), trans-1-[5-(3-methyl-5-{[4-(trifluoromethyl)pyrimidin-2-yl]amino}phenyl)-1,3-thiazol-2-yl]-cyclohexane-1,4-diol] |

Biological target: recombinant human SYK (GST-hSYK fusion protein) (Homo sapiens, UniProt P43405)
Experiment: biochemical
Settings: Syk IC50, HTRF, recombinant human GST-SYK
Text: Homogeneous Time-Resolved Fluorescence (HTRF) Assay for the Recombinant Human SYK Enzyme:

| pIC50 | Structure (SMILES) |
| --- | --- |
| 6.53 | Cc1cc(Nc2nccc(C(F)(F)F)n2)cc(-c2cnc(C3CCC4(CC3)OCCO4)s2)c1 [N-{3-[2-(1,4-diaxaspiro[4.5]dec-8-yl)-1,3-thiazol-5-yl]-5-methylphenyl}-4-(trifluoromethyl)pyrimidin-2-amine] |
| 6.67 | Cc1cc(Nc2nccc(C(F)(F)F)n2)cc(-c2cnc(C3(O)CCCN(CC(=O)O)CC3)s2)c1 (centres unmarked) [{4-hydroxy-4-[5-(3-methyl-5-{[4-(trifluoromethyl)pyrimidin-2-yl]amino}phenyl)-1,3-thiazol-2-yl]azepan-1-yl)acetic acid] |

Same assay, conditions: rhSYK Activity (IC50), recombinant human GST-SYK 5 pM, ATP 25 μM, biotinylated substrate peptide 250 nM, HTRF, 10-dose titration

| Structure (SMILES) | pIC50 |
| --- | --- |
| Cc1cc(Nc2nccc(C(F)(F)F)n2)cc(-c2cnc(C3CCS(=O)(=O)CC3)s2)c1 [Example 137, N-{3-[2-(1,1-dioxidotetrahydro-2H-thiopyran-4-yl)-1,3-thiazol-5-yl]-5-methylphenyl}-4-(trifluoromethyl)pyrimidin-2-amine] | > 7.00 |
| Cc1cc(Nc2nccc(C(F)(F)F)n2)cc(-c2cnc(C34CCC(C(=O)O3)C(C)(C)C4)s2)c1 (stereo not drawn) [Example 139, Cis-5,5-dimethyl-1-[5-(3-methyl-5-{[4-(trifluoromethyl)pyrimidin-2-yl]amino}phenyl)-1,3-thiazol-2-yl]-2-oxabicyclo[2.2.2]octan-3-one] | 6.00 to 7.00 |
| Cc1cc(Nc2nccc(C(F)(F)F)n2)cc(-c2cnc(C3(O)CCC(O)C4(CC4)C3)s2)c1 (centres unmarked) [Example 143(A), 7-[5-(3-methyl-5-{[4-(trifluoromethyl)pyrimidin-2-yl]amino}phenyl)-1,3-thiazol-2-yl]spiro[2.5]octane-4,7-diol] | > 7.00 |
| Cc1cc(Nc2nccc(C(F)(F)F)n2)cc(-c2cnc(C3(O)CC4(CC4)C(O)C4(CC4)C3)s2)c1 (centres unmarked) [Example 143(B), 9-[5-(3-methyl-5-{[4-(trifluoromethyl)pyrimidin-2-yl]amino}phenyl)-1,3-thiazol-2-yl]dispiro[2.1.2.3]decane-4,9-diol] | > 7.00 |
| Cc1cc(Nc2nccc(C(F)(F)F)n2)cc(-c2cnc(C3CCCCNC3=O)s2)c1 (centres unmarked) [Example 144, 3-[5-(3-methyl-5-{[4-(trifluoromethyl)pyrimidin-2-yl]amino}phenyl)-1,3-thiazol-2-yl]azepan-2-one] | > 7.00 |
| Cc1cc(Nc2nccc(C(F)(F)F)n2)cc(-c2cnc(C(C)(O)c3ccc(C(=O)O)nc3)s2)c1 (centres unmarked) [Example 149, 5-{1-Hydroxy-1-[5-(3-methyl-5-{[4-(trifluoromethyl)pyrimidin-2-yl]amino}phenyl)-1,3-thiazol-2-yl]ethyl}pyridine-2-carboxylic acid] | > 7.00 |
| Cc1cc(Nc2nccc(C)n2)cc(-c2cnc([C@@]3(O)CC[C@H](C(=O)O)C(C)(C)C3)s2)c1 [Example 152, (1S,4R)-4-Hydroxy-2,2-dimethyl-4-{5-[3-methyl-5-(4-methyl-pyrimidin-2-ylamino)-phenyl]-1,3-thiazol-2-yl}-cyclohexanecarboxylic acid] | > 7.00 |
| CCOP(=O)(OCC)[C@]1(O)CC[C@@](O)(c2ncc(-c3cc(C)cc(Nc4nccc(C(F)(F)F)n4)c3)s2)CC1 [Example 155(A), Diethyl{cis-1,4-dihydroxy-4-[5-(3-methyl-5-{[4-(trifluoromethyl)pyrimidin-2-yl]amino}phenyl)-1,3-thiazol-2-yl]cyclohexyl}phosphonate] | > 7.00 |
| Cc1cc(Nc2nccc(OCCO)n2)cc(-c2cnc(C(O)(CO)CO)s2)c1 [Example 158, 2-[5-(3-{[4-(2-hydroxyethoxy)pyrimidin-2-yl]amino}-5-methylphenyl)-1,3-thiazol-2-yl]propane-1,2,3-triol] | > 7.00 |
| Cc1cc(Nc2nccc(OCCO)n2)cc(-c2cnc(C3(O)CCC(C(=O)O)C(C)(C)C3)s2)c1 (centres unmarked) [Example 159, 4-hydroxy-4-[5-(3-{[4-(2-hydroxyethoxy)pyrimidin-2-yl]amino}-5-methylphenyl)-1,3-thiazol-2-yl]-2,2-dimethylcyclohexanecarboxylic acid] | > 7.00 |

Second part, the compound after the results:

| pIC50 | Structure (SMILES) |
| --- | --- |
| > 7.00 | Cc1cc(Nc2nccc(C(F)(F)F)n2)cc(-c2cnc(/C=C/c3ccc(C(=O)O)cc3)s2)c1 [Example 147] |
| > 7.00 | Cc1cc(Nc2nccc(C(F)(F)F)n2)cc(-c2cnc(CCc3ccc(C(=O)O)cc3)s2)c1 [Example 148, 4-{2-[5-(3-methyl-5-{[4-(trifluoromethyl)pyrimidin-2-yl]amino}phenyl)-1,3-thiazol-2-yl]ethyl}benzoic acid] |
| > 7.00 | Cc1cc(Nc2nccc(C(F)(F)F)n2)cc(-c2cnc(C(C)(O)c3ccc(C(=O)O)cn3)s2)c1 (centres unmarked) [Example 150, 6-{1-Hydroxy-1-[5-(3-methyl-5-{[4-(trifluoromethyl)pyrimidin-2-yl]amino}phenyl)-1,3-thiazol-2-yl]ethyl}pyridine-3-carboxylic acid] |
| > 7.00 | Cc1cc(Nc2nccc(C(F)(F)F)n2)cc(-c2cnc(C3(O)CCC/C(=N\O)C3(C)C)s2)c1 (centres unmarked) [Example 156, (3E)-3-(Hydroxyimino)-2,2-dimethyl-1-[5-(3-methyl-5-{[4-(trifluoromethyl)pyrimidin-2-yl]amino}phenyl)-1,3-thiazol-2-yl]cyclohexanol] |
| > 7.00 | Cc1cc(Nc2nccc(-c3cnn(CC(C)(C)O)c3)n2)cc(-c2cnc(C3(O)CCC3)s2)c1 [Example 157, 1-{5-[3-({4-[1-(2-hydroxy-2-methylpropyl)-1H-pyrazol-4-yl]pyrimidin-2-yl}amino)-5-methylphenyl]-1,3-thiazol-2-yl}cyclobutanol] |
| > 7.00 | Cc1cc(Nc2nccc(C(F)(F)F)n2)cc(-c2cnc(C3(N)CCNC(=O)CC3)s2)c1 (centres unmarked) [Example 162, 5-amino-5-[5-(3-methyl-5-{[4-(trifluoromethyl)pyrimidin-2-yl]amino}phenyl)-1,3-thiazol-2-yl]azepan-2-one] |
